Patent US20260363251A1 (priority 2022, published 2026)
Like-named read-outs stand apart in the source and are kept apart here. Numbered stars: 1 amine (or outer) side, 2 acyl side, 3 side chain; on linkers, the order of the positions; unused ones are H or OH. Bridge positions count the residues as written; N and C are the ends. Square brackets hold non-standard residues; d marks the D form. Peptide text beside a SMILES is read from it. * marks the point of attachment. Tridecanoyl(12-Me) = CC(C)CCCCCCCCCCC(=O)*; X1 = NC(=O)CC(O)C(N[*:1])C(=O)[*:2]; NMeF = CN[CH](Cc1ccccc1)C(=O)O; NMeN = CN[CH](CC(N)=O)C(=O)O; X2 = CCC(C)CCCCCCCCCCC(=O)*

How the values were obtained:
Fusarium culmorum = test: Seed treatment, soilborne Fusarium culmorum in wheat under semi-field conditions (Example 4.1B); assay type: in vivo; details: Celest FS025, 5 g ai per 100 kg seeds; plant emergence vs infected control
Aphanomyces cochlioides = test: Seed treatment, soilborne Aphanomyces cochlioides in sugar beet in the greenhouse (Example 4.3); assay type: in vivo, Aphanomyces cochlioides strain K-9164; details: Tachigaren WS070; damping off vs infected control
Pyricularia oryzae = assay type: in vivo; details: 1 d preventive, 400 L/ha
[1] = Solubility in water or DMSO
Rhizoctonia solani = test: Treatment of sheath blight on rice (Table 11); details: 1 d preventive, 400 L/ha
[2] = dmso, organic solvent or mixture

In the case of `N#Cc1c[nH]cc1-c1cccc2c1OC(F)(F)O2` [Fludioxonil], the “activity (%)” value (Fusarium culmorum) is reported as 93%.
In the case of `Cc1cc(O)no1` [Hymexazol], the “activity (%)” value (Aphanomyces cochlioides) is reported as 74%.
With `CCCC1COC(Cn2cncn2)(c2ccc(Cl)cc2Cl)O1` (stereo not drawn) [Propiconazole] the “disease symptom reduction (%) vs. Untreated” value (Pyricularia oryzae; 5 g/ha) was 17%, the “disease symptom reduction (%) vs. Untreated” value (Pyricularia oryzae; 14 g/ha) was 38% and the “disease symptom reduction (%) vs. Untreated” value (Pyricularia oryzae; 42 g/ha) was 79%. For the same compound, the “disease symptom reduction (%) vs. Untreated” value (Pyricularia oryzae; 125 g/ha) was 92%.
For `CCC(C)CCCCCCCCCCC(=O)NC1C(=O)NC(CC(=O)O)C(=O)NC(C(O)CC(N)=O)C(=O)NC(CO)C(=O)N(C)C(CC(N)=O)C(=O)N(C)C(Cc2ccccc2)C(=O)NC(CCC(N)=O)C(=O)NC(CCC(=O)O)C(=O)OC1C` (stereo not drawn) [Formula II (b) Lipopeptide 1218] (X2-TD[X1]S[NMeN][NMeF]QE; ester 1-C; configuration not given here), the solubility [1, 2] was > 10000 µg/mL.
For `CC(C)CCCCCCCCCCC(=O)NC1C(=O)NC(CC(=O)O)C(=O)NC(C(O)CC(N)=O)C(=O)NC(CO)C(=O)N(C)C(CC(N)=O)C(=O)N(C)C(Cc2ccccc2)C(=O)NC(CCC(N)=O)C(=O)NC(CCC(=O)O)C(=O)OC1C` (stereo not drawn) [Formula II (a) Lipopeptide 1204] ({Tridecanoyl(12-Me)}-TD[X1]S[NMeN][NMeF]QE; ester 1-C; configuration not given here), the solubility [1, 2] was > 10000 µg/mL and the solubility ([1]; water, pH 2.08, water) was 21.4 µg/mL.
With `CC(=O)NC1C(OCC(OC2OC(CO)C(O)C(O)C2O)C2OC(OC3C(O)C(CO)OC(OC4(CO)OC(C(O)CO)C(O)C4OC4OC(CO)C(O)C(O)C4O)C3O)C(O)C(O)C2OC2OC(C(O)CO)C(O)C(O)C2OC2OCC(OC(N)=O)C(O)C2O)OC(CO)C(O)C1O` (stereo not drawn) [compound I] the solubility [1, 2] was > 9770 µg/mL.
With `CO/C=C(/C(=O)OC)c1ccccc1Oc1cc(Oc2ccccc2C#N)ncn1` [Azoxystrobin] the “disease symptom reduction (%) vs. Untreated” value (Pyricularia oryzae; 3 g/ha) was 92%, the “disease symptom reduction (%) vs. Untreated” value (Pyricularia oryzae; 9 g/ha) was 85% and the “disease symptom reduction (%) vs. Untreated” value (Pyricularia oryzae; 28 g/ha) was 96%. For the same compound, the “disease symptom reduction (%) vs. Untreated” value (Pyricularia oryzae; 83 g/ha) was 92%, the “disease symptom reduction (%) vs. Untreated” value (Rhizoctonia solani; 3 g/ha) was 62% and the “disease symptom reduction (%) vs. Untreated” value (Rhizoctonia solani; 9 g/ha) was 86%. The “disease symptom reduction (%) vs. Untreated” value (Rhizoctonia solani; 28 g/ha) was 81% and the “disease symptom reduction (%) vs. Untreated” value (Rhizoctonia solani; 83 g/ha) was 86%.
